Like-named read-outs stand apart in the source and are kept apart here.
Key:
H1650 lung cancer cells [1] = tested on: H1650 lung cancer cells; design: % @ 20 μM: scale not given here; conditions: cited from earlier work; for IC50: examples up to number 80 taken from PCT WO2013/025882, read-out: IC50 (μM), Cell Viability Data
EGFR-L858R/CCSP mice = experiment: In vivo lung cancer model (MRI tumor volume); conditions: 100 mg/kg i.p. every other day for two weeks; DMSO control 20% increase
Description: The in vivo lung cancer model is described in Politi et al., Genes Dev. Jun. 1, 2006 20: 1496-1510. EGFR-L858R/CCSP mice were fed doxycycline-impregnanted food pellets to induce tumor formation. After 8-12 weeks, mice were imaged in a Bruker 4.7T Biospec scanner to confirm lung nodule development. After tumor confirmation, the compound of Example 30 was prepared in DMSO (Sigma) and administered i.p. at 100 mg/kg every other day for two weeks. After treatment, the mice were re-imaged by MRI, and pre-treatment and post-treatment lung volumes were calculated by visible lung opacity present in each axial image using Osirix 4.1.1. DMSO control animals show a 20% increase in tumor volume over two week treatment period. Animals treated with the compound of Example 30 show a 60% decrease in tumor volume over two week treatment period.

[2] = tested on: BALB/c hearts transplanted into fully allogeneic B6 recipients; experiment: Heart allograft survival; type: in vivo, mice; conditions: 100 mg/kg i.p.; n=4; untreated rejected by day 8; p<0.05 vs control
Description: To test for a clinically relevant in vivo effect, BALB/c hearts were transplanted into fully allogeneic B6 recipients. While untreated animals rejected their grafts by day 8 n=4, the grafts in the mice treated with 100 mg/kg i.p. of Example 30 lasted 18 days n=4, p<0.05 vs control, a statistically and clinically significant effect.

H1650 lung cancer cells [3] = experiment: Cell viability assay (MTT, IC50 determination); type: cell-based; conditions: Homo sapiens, NCI-H1650, 48 h after drug treatment, examples 100-103
Description: Cell Viability Assays (IC50 Determination)
Cell viability assays were performed according to Denizot, F. and R. Lang, Journal of Immunological Methods, 1986. 89(22): p. 271-277. H1650 lung cancer cells were plated at 150,000 cells per well in a 12 well plate. Twenty-four hours after plating, cells were treated as described with increasing concentrations of drug and control. Forty-eight hours after drug treatment, cells were treated with 100 μL of 3-(4,5-Dimethylthiazol-2-yl)-2,5-diphenyltetrazolium bromide (MTT) and incubated for 2 hours at 37 C. The MTT solution was subsequently replaced with 300 μl of n-propyl alcohol and re-aliquoted to a 96 well plates. Spectrophotometric analysis of each solution was performed using a 96 well plate reader at 600 nm in triplicate. The examples up to number 80 in Table 1 below are taken from PCT WO2013/025882, published 21 Feb. 2013. They illustrate biological activities of compounds that share a tricyclic scaffold.

CD4 naïve cells = experiment: Induction of Treg (Foxp3+) from naïve CD4 T cells; type: cell-based; conditions: control compounds, concentration not given; 3 days
Description: Example 30 has been tested for its ability to induce Treg from naïve CD4 T cells. […] Fifty thousand CD4 naïve cells (CD62Lhi,CD25 low, CD4 positive) were incubated with 2 ng/mL TGFβ, 1 ug/mL anti-CD3, 100 ng/mL IL-2, 50000 APCs per well and the compounds 10 μM, 5 μM and 2.5 μM concentrations. The cells were incubated for 3 days and then stained for CD4 and Foxp3 expression. Results were expressed as fold increase over the % induced in control (DMSO) wells (typically 20-25% Foxp3+). AKTi, a small molecule AKT inhibitor, was used as a positive control; it induced about a 4-fold increase. […] The effects of Example 30 on iTreg induction are amplified as the TGFβ concentration decreases.

SMILES	IC50 (H1650 lung cancer cells [1]; MTT, 48 h after drug treatment)	IC50 (H1650 lung cancer cells [3])	other results
O=S(=O)(N[C@H]1CCC[C@@H](N2c3ccccc3CCc3ccccc32)C1)c1ccc(OC(F)(F)F)cc1 (relative stereo) [Example 73 cis, cis-N-(3-(10,11-dihydro-5H-dibenzo[b,f]azepin-5-yl)cyclohexyl)-4-(trifluoromethoxy)benzenesulfonamide]	5 µM		
O=S(=O)(N[C@H]1CCC[C@H](N2c3ccccc3CCc3ccccc32)C1)c1ccc(OC(F)(F)F)cc1 (relative stereo) [Example 73 trans, trans-N-(3-(10,11-dihydro-5H-dibenzo[b,f]azepin-5-yl)cyclohexyl)-4-(trifluoromethoxy)benzenesulfonamide]	15 µM		
O=S(=O)(NCCCN1c2ccccc2CCc2ccc(Cl)cc21)c1cc(F)cc(F)c1 [Example 13, N-(3-(3-chloro-10,11-dihydro-5H-dibenzo[b,f]azepin-5-yl)propyl)-3,5-difluorobenzenesulfonamide]	18 µM		
Cc1ccc(S(=O)(=O)NCCN2c3ccccc3Sc3ccc(Cl)cc32)cc1 [Example 18, N-(2-(2-chloro-10H-phenothiazin-10-yl)pethyl)4-methylbenzenesulfonamide]	24.4 µM		
O=S(=O)(NCCCN1c2ccccc2CCc2ccc(Cl)cc21)c1ccc(Cl)cc1F [Example 28, N-(3-(3-chloro-10,11-dihydro-5H-dibenzo[b,f]azepin-5-yl)propyl)-4-chloro-2-fluorobenzenesulfonamide]			IC50 (μM), Cell Viability Data (H1650 lung cancer cells [1]; MTT, 48 h after drug treatment, examples up to number 80 taken from PCT WO2013/025882): INACTIVE
O=S(=O)(NCCCN1c2ccccc2CCc2ccc(Cl)cc21)c1ccc(OC(F)(F)F)cc1 [Example 30, N-(3-(3-chloro-10,11-dihydro-5H-dibenzo[b,f]azepin-5-yl)propyl)-4-(trifluoromethoxy)benzenesulfonamide]			decrease in tumor volume over two week treatment period (EGFR-L858R/CCSP mice): 60%; graft survival [2]: 18 days
O=S(=O)(NCCC=C1c2ccccc2Sc2ccccc21)c1ccc(OC(F)(F)F)cc1 [Example 50, N-(3-(9H-thioxanthen-9-ylidene)propyl)-4-(trifluoromethoxy)benzenesulfonamide]	~15 µM		
O=S(=O)(NCCCN1c2ccccc2CCc2ccc(Cl)cc21)c1cnc(Cl)c(Br)c1 [Example 63, 5-Bromo-6-chloro-N-(3-(3-chloro-10,11-dihydro-5H-dibenzo[b,f]azepin-5-yl)propyl)pyridine-3-sulfonamide]			% @ 20 μM (H1650 lung cancer cells [1]; 20 μM, taken from PCT WO2013/025882): 65% @ 20
O=S(=O)(NCCCN1c2ccccc2CCc2cccnc21)c1ccc(OC(F)(F)F)cc1 [Example 100, N-(3-(5H-Benzo[b]pyrido[3,2-f]azepin-11(6H)-yl)propyl)-4-(trifluoromethoxy)benzenesulfonamide]		20 µM	
O=S(=O)(NCCCN1c2ccccc2CCc2cccnc21)c1ccc(Cl)cc1 [Example 101, N-(3-(5H-Benzo[b]pyrido[3,2-f]azepin-11(6H)-yl)propyl)-4-chlorobenzenesulfonamide]		25 µM	
O=S(=O)(NCCCN1c2ccccc2CCc2ncccc21)c1ccc(OC(F)(F)F)cc1 [Example 102, N-(3-(10,11-Dihydro-5H-benzo[b]pyrido[2,3-f]azepin-5-yl)propyl)-4-(trifluoromethoxy)benzenesulfonamide]		30 µM	
O=S(=O)(NCCCN1c2ccccc2CCc2ncccc21)c1ccc(Cl)cc1 [Example 103, 4-Chloro-N-(3-(10,11-dihydro-5H-benzo[b]pyrido[2,3-f]azepin-5-yl)propyl)benzenesulfonamide]		30 µM	
O=C(CCCN1CCC(O)(c2ccc(Cl)cc2)CC1)c1ccc(F)cc1 [Haloperidol]			fold increase in iTreg over control (DMSO) wells (CD4 naïve cells): did not induce a statistically significant increase
